Experimental data: patent US20240408145A1, “Gene Therapy” (Ospedale San Raffaele S.r.l., priority 2021, published 2024)
“Also recorded” adds a separate entry of the source. Counter-ions that a name gives are not always drawn.

Experiments:
[1] = target: T1, ATR (Mus musculus, UniProt Q9JKK8); conditions: 3T3TopBP1-ER cells; cited from earlier work
T1 construct: endogenous in cells; host or cells: 3T3TopBP1-ER cells

[2] = test system: JNK; conditions: cited from earlier work
[3] = target: T2, JNK; conditions: cited from earlier work
T2 construct: IC50; Ki

[4] = target: ATR (Homo sapiens, UniProt Q13535); conditions: cited from earlier work
[5] = target: ATM kinase (Homo sapiens, UniProt Q13315); conditions: cited from earlier work
[6] = test system: human recombinant MEK1, MKK4, IKKα, PKCα, Src, Syc and PDGFα; conditions: at concentrations less than 30 μM; cited from earlier work
[7] = test system: Mv1Lu cells; conditions: read-out: IC50, TGFβ-induced AP-1 activation; cited from earlier work
[8] = cited from earlier work
[9] = test system: JNK1, 2 and 3; conditions: cited from earlier work
[10] = test system: human CD34+ HSPCs; test: HDR gene editing efficiency in HSPCs (ddPCR, GFP flow cytometry); type: cell-based
[11] = test system: JNK and JIP; conditions: read-out: IC50, protein-protein interaction between JNK and JIP; cited from earlier work
[12] = test system: c-Jun phosphorylation; conditions: cited from earlier work
[13] = target: PIM1 (Homo sapiens, UniProt P11309); conditions: cited from earlier work
[14] = target: casein kinase 2 (CK2) (Homo sapiens, UniProt P68400); conditions: cited from earlier work
[15] = target: extracellular-signal-regulated kinase 8 (ERK8) (Homo sapiens, UniProt Q8TD08); conditions: cited from earlier work
[16] = target: HIPK2 (Homo sapiens, UniProt Q9H2X6); conditions: cited from earlier work
[17] = target: DYRK1a (Homo sapiens, UniProt Q13627); conditions: cited from earlier work
[18] = target: BRD4 (Homo sapiens, UniProt O60885); conditions: cited from earlier work
[19] = test system: BM-derived human CD34+ cells; test: Senescence markers (p16, SA-β-Gal) in BM-derived cells of the human graft; type: in vivo, NSG mice; conditions: NSG mice, endpoint 15-18 weeks; inhibitor at time of ex vivo GE
[20] = test system: edited human CD34+ HSPCs; test: CD34+ HSPC xenotransplantation in NSG mice; type: in vivo; conditions: inhibitor at time of ex vivo GE (GSE56: limiting cell doses)
[21] = test system: IL8, CXCL10, p21, p16; test: Gene expression in BM-derived HSPCs (qPCR); type: cell-based, human; conditions: 18 weeks post transplantation, HS/AAV6 ± GSE56
Description: For gene expression analyses, total RNA was extracted using either miRNeasy Micro Kit (QIAGEN) according to the manufacturer's instructions and DNase treatment was performed using RNase-free DNase Set (QIAGEN). cDNA was synthetized with iScript cDNA Synthesis Kit (Bio-Rad). cDNA was then pre-amplified using TaqMan PreAmp Master Mix (ThermoFisher) and used for q-PCR in a Viia7 Real-time PCR thermal cycler using both Fast SYBR Green Master Mix (Thermofisher), after standard curve method optimization to reach the 100% primer efficiency for each couple of primers listed in 1. The relative expression of each target gene was first normalized to GUSB housekeeping genes expression and then represented as 2^-DCt for each sample or as fold changes (2^-DDCt) relative to the indicated control conditions.

[22] = test system: BM-derived human CD34+ cells; test: CFU-C assay of CD34+ cells retrieved from bone marrow of primary recipients; type: cell-based; conditions: 15-18 weeks, inhibitor at time of ex vivo GE vs standard protocol
[23] = test system: IL1A, IL8, IL6, CCL2; test: Inflammatory cytokine expression in edited HSPCs (qPCR); type: cell-based, human; conditions: CB HSPCs, HS/AAV6; inhibitor at time of GE vs standard protocol
[24] = test system: human CD34+ HSPCs; test: Colony-forming unit cell (CFU-C) assay; type: cell-based; conditions: CB HSPCs, HS/AAV6; inhibitor at time of GE vs standard protocol; 24 h and 96 h post GE

Chain of casein kinase 2 (CK2) (P68400 whole entry): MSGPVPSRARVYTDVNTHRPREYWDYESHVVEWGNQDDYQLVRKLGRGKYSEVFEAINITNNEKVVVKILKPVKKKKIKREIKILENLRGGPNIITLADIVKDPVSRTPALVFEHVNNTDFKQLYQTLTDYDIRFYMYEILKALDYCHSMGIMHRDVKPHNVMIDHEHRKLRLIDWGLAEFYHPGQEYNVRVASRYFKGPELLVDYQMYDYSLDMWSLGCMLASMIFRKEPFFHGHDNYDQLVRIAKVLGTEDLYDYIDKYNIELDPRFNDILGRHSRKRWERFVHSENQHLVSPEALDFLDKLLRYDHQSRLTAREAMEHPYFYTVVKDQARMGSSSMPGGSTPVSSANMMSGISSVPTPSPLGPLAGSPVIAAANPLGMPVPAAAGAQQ
Chain of extracellular-signal-regulated kinase 8 (ERK8) (Q8TD08 whole entry, species assumed): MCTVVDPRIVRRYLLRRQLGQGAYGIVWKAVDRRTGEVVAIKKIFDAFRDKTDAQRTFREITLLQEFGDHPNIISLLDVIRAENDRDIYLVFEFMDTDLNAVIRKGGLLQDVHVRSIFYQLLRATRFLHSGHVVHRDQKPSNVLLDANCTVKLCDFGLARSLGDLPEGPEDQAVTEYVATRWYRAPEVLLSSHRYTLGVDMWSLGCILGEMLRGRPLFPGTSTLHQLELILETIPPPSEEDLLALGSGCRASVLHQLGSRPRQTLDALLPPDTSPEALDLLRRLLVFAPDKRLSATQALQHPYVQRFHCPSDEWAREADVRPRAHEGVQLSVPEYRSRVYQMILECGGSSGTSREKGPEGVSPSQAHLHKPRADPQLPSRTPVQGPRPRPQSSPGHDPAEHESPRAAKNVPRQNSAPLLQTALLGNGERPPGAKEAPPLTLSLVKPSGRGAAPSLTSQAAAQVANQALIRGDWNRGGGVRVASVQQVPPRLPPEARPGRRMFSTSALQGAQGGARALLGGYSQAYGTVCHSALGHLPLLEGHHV
Chain of HIPK2 (Q9H2X6 whole entry, species assumed): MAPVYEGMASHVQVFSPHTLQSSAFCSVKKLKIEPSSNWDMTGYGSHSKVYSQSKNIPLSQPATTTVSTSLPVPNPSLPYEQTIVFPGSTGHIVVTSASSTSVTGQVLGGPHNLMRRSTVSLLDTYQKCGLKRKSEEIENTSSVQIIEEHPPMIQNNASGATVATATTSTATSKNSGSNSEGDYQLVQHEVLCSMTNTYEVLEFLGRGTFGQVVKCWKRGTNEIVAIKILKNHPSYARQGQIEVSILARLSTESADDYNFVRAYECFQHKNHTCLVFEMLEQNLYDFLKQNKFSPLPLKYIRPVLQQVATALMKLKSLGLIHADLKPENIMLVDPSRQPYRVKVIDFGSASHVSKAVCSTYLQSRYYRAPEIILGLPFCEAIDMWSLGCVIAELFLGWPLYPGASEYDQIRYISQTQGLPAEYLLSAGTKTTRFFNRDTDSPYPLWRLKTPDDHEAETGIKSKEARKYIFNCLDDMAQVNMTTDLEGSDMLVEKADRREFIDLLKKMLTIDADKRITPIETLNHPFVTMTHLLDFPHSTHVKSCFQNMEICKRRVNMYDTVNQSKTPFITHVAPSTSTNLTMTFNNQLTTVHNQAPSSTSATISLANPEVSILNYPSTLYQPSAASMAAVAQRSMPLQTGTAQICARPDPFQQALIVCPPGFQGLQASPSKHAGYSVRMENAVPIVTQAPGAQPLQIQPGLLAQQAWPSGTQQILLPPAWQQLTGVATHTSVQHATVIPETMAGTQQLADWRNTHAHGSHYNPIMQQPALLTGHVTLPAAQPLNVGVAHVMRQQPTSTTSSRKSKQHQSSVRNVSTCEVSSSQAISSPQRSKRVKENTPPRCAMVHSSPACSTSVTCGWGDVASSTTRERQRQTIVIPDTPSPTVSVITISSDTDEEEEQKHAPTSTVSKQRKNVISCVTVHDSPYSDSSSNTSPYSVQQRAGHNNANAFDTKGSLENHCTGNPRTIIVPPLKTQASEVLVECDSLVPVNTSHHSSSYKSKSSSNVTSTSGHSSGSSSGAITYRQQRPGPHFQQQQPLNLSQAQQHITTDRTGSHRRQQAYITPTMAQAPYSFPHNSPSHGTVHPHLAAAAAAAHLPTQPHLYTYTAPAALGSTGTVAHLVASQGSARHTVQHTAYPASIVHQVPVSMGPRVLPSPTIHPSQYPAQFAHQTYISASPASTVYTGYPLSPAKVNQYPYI
Chain of PIM1 (P11309 whole entry, species assumed): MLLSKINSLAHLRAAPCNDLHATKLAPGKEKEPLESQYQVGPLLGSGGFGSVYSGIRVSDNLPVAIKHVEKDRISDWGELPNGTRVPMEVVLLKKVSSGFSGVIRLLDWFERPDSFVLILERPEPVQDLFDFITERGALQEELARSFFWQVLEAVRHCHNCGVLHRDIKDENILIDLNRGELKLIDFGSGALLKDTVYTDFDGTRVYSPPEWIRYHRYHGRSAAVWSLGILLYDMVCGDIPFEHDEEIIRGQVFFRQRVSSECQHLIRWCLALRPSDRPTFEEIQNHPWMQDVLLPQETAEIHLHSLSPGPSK

For `Cn1c(=O)n(-c2ccc(C(C)(C)C#N)cc2)c2c3cc(-c4cnc5ccccc5c4)ccc3ncc21` [BEZ235], the IC50 [1] is given as ~21 nM.

For `Cl.Cl.c1cc(OCCN2CCCCC2)cc(-c2n[nH]c3ccc(-c4ncn[nH]4)cc23)c1` [CC 401 dihydrochloride, 3-[3-[2-(1-Piperidinyl)ethoxy]phenyl]-5-(1H-1,2,4-triazol-5-yl)-1H-indazole dihydrochloride], the “selectivity for JNK over p38, ERK, IKK2, protein kinase C, Lck and ZAP70” value [2] is given as > 40 fold and the Ki [3] is given as 25 to 50 nM.

For `O=C(NC(NC(=S)Nc1ccc(F)c([N+](=O)[O-])c1)C(Cl)(Cl)Cl)C(c1ccccc1)c1ccccc1` (centres unmarked) [CGK 733], the IC50 [4] is given as ~200 nM and the IC50 [5] is given as ~200 nM.

For `Nc1n[nH]c2nnc(-c3c(-c4ccccc4)nn4ccccc34)cc12` [FR180204, 5-(2-Phenyl-pyrazolo[1,5-a]pyridin-3-yl)-1H-pyrazolo[3,4-c]pyridazin-3-ylamine], the “activity against MEK1, MKK4, IKKα, PKCα, Src, Syc and PDGFα” value [6] is listed as “no activity” and the IC50 [7] is listed as 3100 nM.

In the case of `O=c1cc(-c2cccc3c2Sc2ccccc2S3)oc(N2CCOCC2)c1` [KU-55933], the solubility [8] is listed as “soluble in DMSO and ethanol”.

For `C[S+]([O-])c1ccc(-c2nc(-c3ccncc3)c(-c3ccc(F)cc3)[nH]2)cc1` (centres unmarked) [SB 203580 hydrochloride], the solubility [8] is listed as “water-soluble”.

In the case of `O=C1c2ccccc2-c2n[nH]c3cccc1c23` [SP600125, Anthra[1-9-cd]pyrazol-6(2H)-one], the IC50 [9] is given as 40 to 90 nM, the “GFP levels in HSPC subpopulations (GE efficiency)” value ([10]; CB HSPCs, Erk (4 μM) or Jnk (2 μM) inhibitor day 1 and 2 vs DMSO, 96 h post-editing) is given as “increase in GFP levels” and the “Percentage of more primitive edited cells” value ([10]; Jnk inhibitor 2 μM day 1 and 2) is given as “higher percentage of more primitive edited cells”.

For `Nc1nnc(Sc2ncc([N+](=O)[O-])s2)s1` [SU 3327, 5-[(5-Nitro-2-thiazolyl)thio]-1,3,4thiadiazol-2-amine], the IC50 [11] is listed as 239 nM and the IC50 [3] is listed as 700 nM.

In the case of `CCOc1nc(NC(=O)Cc2cc(OC)ccc2OC)cc(N)c1C#N` [TCS JNK 6o, N-(4-Amino-5-cyano-6-ethoxy-2-pyridinyl)-2,5-dimethoxybenzeneacetamide], the EC50 [12] is given as 920 nM.

In the case of `CN(C)c1nc2c(Br)c(Br)c(Br)c(Br)c2n1CC(=O)O` [TMCB, 2-(4,5,6,7-Tetrabromo-2-(dimethylamino)-1H-benzo[d]imidazol-1-yl)acetic acid], the Ki [13] is given as 8650 nM, the IC50 [14] is given as 500 nM and the Ki [14] is given as 250 nM. For the same molecule, the IC50 [15] was 500 nM, the Ki [16] was 15200 nM and the Ki [17] was 11900 nM.

In the case of `CCOc1cc(N2CCC(O)CC2)ccc1Nc1ncc2c(n1)N(C)c1ccccc1C(=O)N2C` [XMD 8-92, 2-[[2-Ethoxy-4-(4-hydroxy-1-piperidinyl)phenyl]amino]-5,11-dihydro-5,11-dimethyl-6H-pyrimido[4,5-b][1,4]benzodiazepin-6-one], the Kd [18] is listed as 190 nM.

B1: GSE56: mRNA encoding for a dominant negative p53 truncated form (GSE56), co-electroporated; SEQ ID No. 8 and 9 (nucleic acid)
sense: ATGGATGGATGGTGTCCTGGGAGAGACCGTCGGACAGAGGAAGAAAATTTCCGCAAAAAAGAAGAGCATTGCCCGGAGCTGCCCCCAGGGAGTGCAAAGAGAGCACTGCCCACCAGCACAAGCTCCTCTCCCCAGCAAAAGAAAAAACCACTCGATGGAGAATATTTCACCCTTAAGATCCGTGGGCGTGAGCGCTTCGAGATGTTCCGAGAGCTGAATGAGGCCTTGGAATTAAAGGATGCCCGTGCTGCCGAGGAGTCAGGAGACAGCAGGGCTCACTCCAGCTACCCGAAGATAGTTAGTTAG
In the case of B1, the “Percentage of senescent cells (p16, SA-β-Gal) in BM-derived CD34+ / HDR-edited cells of the human graft” value [19] is reported as “prevented the accumulation of the senescence marker SA-β-gal; also recorded: this reduction was observed also upon p53 inhibition”, the “Human CD45+ engraftment in peripheral blood vs standard protocol” value [20] is reported as “fourfold higher engraftment than the standard protocol” and the “mRNA levels of p21, p16 and IL8 in BM-derived HSPCs” value [21] is reported as “mitigated by the administration of GSE56”. For the same molecule, the “Number of colonies formed by BM-derived CD34+ cells” value [22] was “improvement of HSPC clonogenic potential upon p53 inhibition; also recorded: became higher upon p53 inhibition”, the “Relative expression of inflammatory cytokine genes (IL1A, IL8, IL6, CCL2)” value [23] was “downregulation of the cytokines” and the “Number of colonies (HSPC clonogenic potential)” value [24] was “similarly increased”. The “Percentage of HDR-edited alleles (ddPCR)” value ([10]; CB HSPCs, AAVS1 editing (HS/AAV6), inhibitor at time of GE (Anakinra 50 ng/μl, SC514 25 μM, GSE56 mRNA, ATMi) vs standard protocol) was “tended to increase the percentage of HDR editing”.
